In ChEMBL document CHEMBL4049435, “Development of a Series of Kynurenine 3-Monooxygenase Inhibitors Leading to a Clinical Candidate for the Treatment of Acute Pancreatitis” (J Med Chem, 2017):
Activity calls are given as the source filed them. The calls are words filed in the database; no cut-off is given here.

Legend:
Homo sapiens = species: Homo sapiens; experiment: Inhibition of IDO (unknown origin)
[1] = biological target: Tryptophan 2,3-dioxygenase (Homo sapiens) (UniProt P48775); experiment: Inhibition of TDO (unknown origin)
Sequence of Tryptophan 2,3-dioxygenase (Homo sapiens) (P48775 whole entry, looked up): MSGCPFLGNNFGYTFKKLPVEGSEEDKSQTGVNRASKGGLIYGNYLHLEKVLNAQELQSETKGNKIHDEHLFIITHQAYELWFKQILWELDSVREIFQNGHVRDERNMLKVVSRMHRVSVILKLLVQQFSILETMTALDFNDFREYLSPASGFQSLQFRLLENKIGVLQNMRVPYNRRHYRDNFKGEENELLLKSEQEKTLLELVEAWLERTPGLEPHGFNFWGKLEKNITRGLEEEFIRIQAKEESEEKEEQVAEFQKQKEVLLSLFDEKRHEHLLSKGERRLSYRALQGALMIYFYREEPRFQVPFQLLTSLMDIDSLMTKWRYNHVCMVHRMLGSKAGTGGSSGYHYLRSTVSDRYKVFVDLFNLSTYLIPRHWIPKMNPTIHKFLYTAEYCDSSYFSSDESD

[2] = biological target: T1, Kynurenine--oxoglutarate transaminase 1 (Homo sapiens) (UniProt Q16773); experiment: Inhibition of KAT1 (unknown origin)
T1 sequence (whole entry): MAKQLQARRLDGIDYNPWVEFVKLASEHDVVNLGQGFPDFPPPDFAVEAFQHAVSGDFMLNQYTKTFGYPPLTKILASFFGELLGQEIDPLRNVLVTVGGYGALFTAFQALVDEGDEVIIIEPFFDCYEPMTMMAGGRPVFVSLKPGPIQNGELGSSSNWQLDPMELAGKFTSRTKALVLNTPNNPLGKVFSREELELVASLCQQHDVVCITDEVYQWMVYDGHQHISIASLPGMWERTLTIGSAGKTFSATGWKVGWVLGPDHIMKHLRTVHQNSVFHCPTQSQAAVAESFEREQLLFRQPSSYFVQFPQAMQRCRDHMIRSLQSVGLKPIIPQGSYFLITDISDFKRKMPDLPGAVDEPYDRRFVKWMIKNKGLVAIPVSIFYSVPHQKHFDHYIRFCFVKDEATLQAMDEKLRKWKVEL

[3] = biological target: T2, Kynureninase (Homo sapiens) (UniProt Q16719); experiment: Inhibition of kynureninase (unknown origin)
T2 sequence (whole entry): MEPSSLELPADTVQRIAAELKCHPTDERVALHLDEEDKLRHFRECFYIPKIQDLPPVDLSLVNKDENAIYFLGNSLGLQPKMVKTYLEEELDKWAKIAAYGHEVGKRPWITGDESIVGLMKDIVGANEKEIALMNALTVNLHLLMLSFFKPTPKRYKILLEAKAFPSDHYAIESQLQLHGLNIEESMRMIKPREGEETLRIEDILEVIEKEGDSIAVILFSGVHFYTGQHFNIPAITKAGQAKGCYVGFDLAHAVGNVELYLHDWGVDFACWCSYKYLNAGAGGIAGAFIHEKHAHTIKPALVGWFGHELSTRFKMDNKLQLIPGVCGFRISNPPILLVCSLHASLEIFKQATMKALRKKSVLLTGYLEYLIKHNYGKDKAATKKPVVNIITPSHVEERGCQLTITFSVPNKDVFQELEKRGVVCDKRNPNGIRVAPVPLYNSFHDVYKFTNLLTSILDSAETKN

[4] = biological target: Kynurenine/alpha-aminoadipate aminotransferase, mitochondrial (Homo sapiens) (UniProt Q8N5Z0); experiment: Inhibition of KAT2 (unknown origin)
Sequence of Kynurenine/alpha-aminoadipate aminotransferase, mitochondrial (Homo sapiens) (Q8N5Z0 30-425 limits assumed): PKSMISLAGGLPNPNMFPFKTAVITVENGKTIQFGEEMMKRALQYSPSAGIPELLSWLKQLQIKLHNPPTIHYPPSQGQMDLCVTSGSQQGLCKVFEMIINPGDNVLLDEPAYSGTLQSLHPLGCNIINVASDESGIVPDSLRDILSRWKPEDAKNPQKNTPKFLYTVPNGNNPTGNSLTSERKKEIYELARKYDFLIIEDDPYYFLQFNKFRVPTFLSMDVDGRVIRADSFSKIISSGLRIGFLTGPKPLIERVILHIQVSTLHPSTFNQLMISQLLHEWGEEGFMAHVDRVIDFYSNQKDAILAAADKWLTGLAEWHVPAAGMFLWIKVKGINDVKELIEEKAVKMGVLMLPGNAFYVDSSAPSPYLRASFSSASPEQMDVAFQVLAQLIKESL

Rattus norvegicus [5] = experiment: (§1) Effect on circulating tryptophan levels in rat plasma at […], iv administered as bolus dose followed by […], iv infusion for 3 hrs; format: functional, organism-based
Rattus norvegicus [6] = experiment: as §1; format: functional, organism-based; remark: listed apart in the source
Rattus norvegicus [7] = experiment: as §1; format: functional, organism-based; remark: listed apart in the source
Rattus norvegicus [8] = experiment: In vivo inhibition of KMO in iv dosed rat assessed as decrease in circulating 3-hydroxykynurenine levels in plasma measured post last dose; format: functional, organism-based
Rattus norvegicus [9] = experiment: (§2) In vivo inhibition of KMO in rat assessed as increase in kynurenine levels in plasma at […], iv administered as bolus followed by […], iv infusion for 3 hrs; format: functional, organism-based
Rattus norvegicus [10] = experiment: as §2; format: functional, organism-based; remark: listed apart in the source
Rattus norvegicus [11] = experiment: as §2; format: functional, organism-based; remark: listed apart in the source
Rattus norvegicus [12] = experiment: Increase in kynurenic acid levels in iv dosed rat plasma measured post last dose; format: functional, organism-based
Rattus norvegicus [13] = experiment: Increase in anthranilic acid levels in iv dosed rat plasma measured post last dose; format: functional, organism-based
Rattus norvegicus [14] = experiment: Decrease in 3-hydroxykynurenine level in plasma of rat model of cerulean-induced acute pancreatitis at 20 mg/kg, iv administered as bolus dose followed by 2.2 mg/kg/hr 5 hrs iv infusion; format: functional, organism-based
Rattus norvegicus [15] = experiment: Increase in kynurenine level in plasma of rat model of cerulean-induced acute pancreatitis at 20 mg/kg, iv administered as bolus dose followed by 2.2 mg/kg/hr 5 hrs iv infusion; format: functional, organism-based
Rattus norvegicus [16] = experiment: Organoprotective activity in lung of acute pancreatitis rat model assessed as decrease in levels of protein leak in bronchoalveolar lavage fluid at 20 mg/kg, iv as bolus dose administered 1 hr post acute pancreatitis induction followed by drug administration at 2.2 mg/kg/hr, iv as infusion over 5 hrs; format: functional, organism-based
Rattus norvegicus [17] = experiment: Organoprotective activity in lung of acute pancreatitis rat model assessed as alveolar-epithelial thickening at 20 mg/kg, iv as bolus dose administered 1 hr post acute pancreatitis induction followed by drug administration at 2.2 mg/kg/hr, iv as infusion over 5 hrs by haematoxylin/eosin stain based light microscopic analysis; format: functional, organism-based
Rattus norvegicus [18] = experiment: Organoprotective activity in lung of acute pancreatitis rat model assessed as inflammatory infiltrates at 20 mg/kg, iv as bolus dose administered 1 hr post acute pancreatitis induction followed by drug administration at 2.2 mg/kg/hr, iv as infusion over 5 hrs by haematoxylin/eosin stain based light microscopic analysis; format: functional, organism-based
Rattus norvegicus [19] = experiment: Organoprotective activity against acute pancreatitis-induced kidney damage in rat assessed as decrease in plasma creatinine levels at 20 mg/kg, iv as bolus dose administered 1 hr post acute pancreatitis induction followed by drug administration at 2.2 mg/kg/hr, iv as infusion over 5 hrs; format: functional, organism-based
Rattus norvegicus [20] = experiment: Organoprotective activity in kidney of acute pancreatitis […] assessed as reduction in apoptotic cell count in the outer medullary stripe at 20 mg/kg, iv as bolus dose administered 1 hr post acute pancreatitis induction followed by drug administration at 2.2 mg/kg/hr, iv as infusion over 5 hrs by TUNEL staining analysis; format: functional, organism-based
Rattus norvegicus [21] = experiment: Organoprotective activity against acute pancreatitis-induced pancreatic injury in rat assessed as decrease in serum amylase levels at 20 mg/kg, iv as bolus dose administered 1 hr post acute pancreatitis induction followed by drug administration at 2.2 mg/kg/hr, iv as infusion over 5 hrs; format: functional, organism-based
Rattus norvegicus [22] = experiment: Protection against multiple organ dysfunction syndrome in acute pancreatitis-induced rat assessed as decrease in stress response plasma glucose levels at 20 mg/kg, iv as bolus dose administered 1 hr post acute pancreatitis induction followed by drug administration at 2.2 mg/kg/hr, iv as infusion over 5 hrs; format: functional, organism-based
[23] = biological target: T3, Kynurenine 3-monooxygenase (Homo sapiens, UniProt O15229)
Target sequence in this assay (O15229 whole entry, looked up): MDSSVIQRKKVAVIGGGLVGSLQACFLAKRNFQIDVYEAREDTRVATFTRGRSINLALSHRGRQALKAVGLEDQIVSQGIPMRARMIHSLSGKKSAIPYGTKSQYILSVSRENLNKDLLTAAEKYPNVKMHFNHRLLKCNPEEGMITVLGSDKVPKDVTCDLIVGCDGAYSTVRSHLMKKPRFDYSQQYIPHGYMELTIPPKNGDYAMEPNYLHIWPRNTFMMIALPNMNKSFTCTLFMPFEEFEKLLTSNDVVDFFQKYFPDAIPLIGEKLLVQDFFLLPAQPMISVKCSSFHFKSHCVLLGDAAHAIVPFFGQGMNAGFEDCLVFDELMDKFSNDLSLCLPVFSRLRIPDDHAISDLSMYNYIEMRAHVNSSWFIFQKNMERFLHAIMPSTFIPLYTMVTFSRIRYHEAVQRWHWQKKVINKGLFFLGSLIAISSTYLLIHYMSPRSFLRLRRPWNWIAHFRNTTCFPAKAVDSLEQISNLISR

[24] = biological target: T3, Kynurenine 3-monooxygenase; remark: listed apart in the source
Target sequence in this assay (O15229 whole entry, looked up): as above

[25] = biological target: T3, Kynurenine 3-monooxygenase; experiment: Inhibition of full length human GST-tagged KMO expressed in baculovirus infected Sf9 insect cell membranes using kynurenine as substrate measured after 1 hr by RapidFire high-throughput mass spectrometric analysis
Target sequence in this assay (O15229 whole entry): as the sequence (O15229 whole entry, looked up) above

serum albumin = serum albumin (Homo sapiens, UniProt P02768); experiment: Binding affinity to human serum albumin by HPLC analysis; format: ADME; details: read-out: PB (converted)
Sequence of serum albumin (P02768 whole entry): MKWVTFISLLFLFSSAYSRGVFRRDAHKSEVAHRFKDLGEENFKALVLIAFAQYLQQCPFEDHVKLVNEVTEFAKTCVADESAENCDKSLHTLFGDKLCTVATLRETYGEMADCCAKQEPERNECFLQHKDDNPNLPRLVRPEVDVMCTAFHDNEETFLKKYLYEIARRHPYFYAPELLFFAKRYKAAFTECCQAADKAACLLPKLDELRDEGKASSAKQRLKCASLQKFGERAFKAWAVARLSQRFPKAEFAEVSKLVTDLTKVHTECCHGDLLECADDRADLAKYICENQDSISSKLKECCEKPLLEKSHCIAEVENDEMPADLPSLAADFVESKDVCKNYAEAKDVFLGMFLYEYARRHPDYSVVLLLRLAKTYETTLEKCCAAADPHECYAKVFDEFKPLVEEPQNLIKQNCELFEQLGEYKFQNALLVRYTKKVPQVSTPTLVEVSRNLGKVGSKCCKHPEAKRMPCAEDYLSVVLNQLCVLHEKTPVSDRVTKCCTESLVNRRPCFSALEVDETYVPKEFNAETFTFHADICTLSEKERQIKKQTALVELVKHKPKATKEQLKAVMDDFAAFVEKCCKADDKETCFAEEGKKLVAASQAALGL

[26] = Permeability of the compound by PAMPA; format: physicochemical; details: read-out: permeability
[27] = Lipophilicity, log D of the compound at pH 7.4 by RP-HPLC analysis; format: physicochemical; details: buffer
[28] = Protein binding in human plasma; format: ADME, cell-free; details: read-out: PPB (converted)
[29] = Solubility of the compound in saline measured after 24 hrs; format: physicochemical
[30] = biological target: T3, Kynurenine 3-monooxygenase; remark: listed apart in the source
Target sequence in this assay (O15229 whole entry): as the sequence (O15229 whole entry, looked up) above

[31] = Drug uptake in plasma of rat model of cerulean-induced acute pancreatitis at 20 mg/kg, iv administered as bolus dose followed by 2.2 mg/kg/hr, iv infusion for 5 hrs; format: ADME, organism-based
[32] = Protein binding in Han-Wistar rat plasma at 1 mg/kg, iv by LC-MS/MS analysis; format: ADME, organism-based; details: read-out: PPB (converted)
[33] = Half life in Han-Wistar rat at 1 mg/kg, iv by LC-MS/MS analysis; format: ADME, organism-based; details: in vivo
[34] = Clearance in Han-Wistar rat blood at 1 mg/kg, iv by LC-MS/MS analysis; format: ADME, organism-based; details: whole blood
[35] = Volume of distribution at steady state in Han-Wistar rat at 1 mg/kg, iv by LC-MS/MS analysis; format: ADME, organism-based; details: in vivo, read-out: Vdss
[36] = Half life of the compound at pH 6 under oxidative condition; format: physicochemical
[37] = Stability of the compound in presence of light measured after 12 hrs; format: physicochemical; details: read-out: Stability
[38] = biological target: Kynurenine 3-monooxygenase (Rattus norvegicus, UniProt O88867); experiment: Inhibition of rat KMO expressed in HEK293 cells using kynurenine as substrate measured after 20 hrs by LC-MS/MS analysis; format: cell-based; details: read-out: Ki(app)
Sequence of Kynurenine 3-monooxygenase (Rattus norvegicus, UniProt O88867) (O88867 whole entry, the tested form may be a part): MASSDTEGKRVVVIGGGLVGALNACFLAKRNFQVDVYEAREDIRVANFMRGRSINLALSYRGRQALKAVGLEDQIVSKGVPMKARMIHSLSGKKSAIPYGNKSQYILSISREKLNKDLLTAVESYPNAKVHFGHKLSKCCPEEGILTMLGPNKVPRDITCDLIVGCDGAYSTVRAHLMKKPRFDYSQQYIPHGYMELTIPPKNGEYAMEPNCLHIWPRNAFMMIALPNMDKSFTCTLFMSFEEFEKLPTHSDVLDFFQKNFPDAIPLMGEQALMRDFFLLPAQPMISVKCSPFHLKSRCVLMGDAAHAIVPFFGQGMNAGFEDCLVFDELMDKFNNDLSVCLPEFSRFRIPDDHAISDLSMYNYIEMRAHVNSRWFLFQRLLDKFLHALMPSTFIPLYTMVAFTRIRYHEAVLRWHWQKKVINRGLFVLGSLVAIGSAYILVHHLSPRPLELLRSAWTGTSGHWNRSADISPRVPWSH

Plasma [39] = experiment: (§3) Unbound fraction in rat plasma at […], iv administered as bolus dose followed by […], iv infusion for 3 hrs; format: ADME, organism-based; details: in vivo
Plasma [40] = experiment: as §3; format: ADME, organism-based; details: in vivo; remark: listed apart in the source
Plasma [41] = experiment: as §3; format: ADME, organism-based; details: in vivo; remark: listed apart in the source
[42] = Half life in Beagle dog at 1 mg/kg, iv by LC-MS/MS analysis; format: ADME, organism-based, Canis lupus familiaris; details: in vivo
[43] = Clearance in Beagle dog blood at 1 mg/kg, iv by LC-MS/MS analysis; format: ADME, organism-based, Canis lupus familiaris; details: whole blood
[44] = Volume of distribution in Beagle dog at 1 mg/kg, iv by LC-MS/MS analysis; format: ADME, organism-based, Canis lupus familiaris; details: in vivo

C[C@@H](Oc1cc2onc(CCC(=O)O)c2cc1Cl)c1ccccn1
inhibition (Homo sapiens): inactive
inhibition [1]: inactive
inhibition [2]: inactive
inhibition [3]: inactive
inhibition [4]: inactive
Activity (Rattus norvegicus [5]): inactive
Activity (Rattus norvegicus [6]): inactive
Activity (Rattus norvegicus [7]): inactive
inhibition (Rattus norvegicus [8]): Dose-dependent effect
inhibition (Rattus norvegicus [9]): Active
inhibition (Rattus norvegicus [10]): Active
inhibition (Rattus norvegicus [11]): Active
Activity (Rattus norvegicus [12]): Dose-dependent effect
Activity (Rattus norvegicus [13]): Dose-dependent effect
Activity (Rattus norvegicus [14]): Active
Activity (Rattus norvegicus [15]): Active
Activity (Rattus norvegicus [16]): Active
Activity (Rattus norvegicus [17]): Active
Activity (Rattus norvegicus [18]): Active
Activity (Rattus norvegicus [19]): Active
Activity (Rattus norvegicus [20]): Active
Activity (Rattus norvegicus [21]): Active
Activity (Rattus norvegicus [22]): Active
T1/2 [23]: 10 h

C[C@@H](Oc1cc2oc(=O)n(CCC(=O)O)c2cc1Cl)c1ccccn1
T1/2 [24]: 2 h

NC(CO)(CO)CO.O=C(O)CCn1c(=O)oc2cc(OCC3CC3)c(Cl)cc21
IC50 [25]: 10 nM
fraction unbound (serum albumin): 0.038
Papp [26]: 1.9 ×10⁻⁶ cm/s
logD [27]: 2.09
fraction unbound [28]: 0.04
solubility at 24 h [29]: > 2060 µg/mL
IC50 [30]: 1580 nM

NC(CO)(CO)CO.O=C(O)CCn1c(=O)oc2cc(OC3CC3)c(Cl)cc21
IC50 [25]: 3.16 nM
fraction unbound (serum albumin): 0.057
Papp [26]: 1.5 ×10⁻⁶ cm/s
logD [27]: 1.64
fraction unbound [28]: 0.031
solubility at 24 h [29]: > 2400 µg/mL
IC50 [30]: 1260 nM

C[C@@H](Oc1cc2onc(CCC(=O)O)c2cc1Cl)c1ccccn1.NCCO
concentration at 5 h [31]: 600000 nM

NC(CO)(CO)CO.O=C(O)CCn1c(=O)oc2cc(OCc3ccccn3)c(Cl)cc21
IC50 [25]: 3.16 nM
fraction unbound (serum albumin): 0.126
Papp [26]: 1.1 ×10⁻⁶ cm/s
logD [27]: 1.32
fraction unbound [28]: 0.074
IC50 [30]: 5010 nM

C[C@@H](Oc1cc2onc(CCC(=O)O)c2cc1Cl)c1ccccn1 [GSK-065]
fraction unbound [32]: 0.022
half-life [33]: 6.6 h
clearance [34]: 0.8 mL/min/kg
Vd [35]: 0.42 L/kg
half-life [36]: > 1000 h
remaining at 12 h [37]: 97.7%
Ki [38]: 45 nM
Cp(f) (Plasma [39]): 3 nM
Cp(f) (Plasma [40]): 50 nM
Cp(f) (Plasma [41]): 405 nM
half-life [42]: 5.8 h
clearance [43]: 0.93 mL/min/kg
Vd [44]: 0.36 L/kg

O=C(O)CCn1c(=O)oc2cc(OCc3ccccn3)c(Cl)cc21
T1/2 [24]: 0.5 h
